Experimental data from US10981927B2, “Bioactive compounds” (priority 2014, dated 2021).
Like-named read-outs stand apart in the source and are kept apart here.

What was measured:
[1] = system: Bcl-2 overexpressing Jurkat cells (B9 clone); assay: cells
Procedure: (§1) Jurkat T-lymphocyte-like, pro-myelocytic HL60 and erythroleukemic K562 cell lines were obtained from the American Type Culture Collection (ATCC, Rockville, Md., USA). The B9 Jurkat cell clone that overexpresses Bcl-2 was previously generated and characterised (Thomson et al (2005)). Jurkat and HL60 cells were grown in culture using RPMI 1640 media supplemented with 10% FBS, 100 units/mL penicillin and 100 μg/mL streptomycin at 37° C. in a humidified atmosphere with 5% CO2. K562 cells were grown in culture using Iscoves DMEM media supplemented with 10% FBS, 100 units/mL penicillin and 100 μg/mL streptomycin at 37° C. in a humidified atmosphere with 5% CO2.
(§2) All cells were treated at 1×10^6 per mL in media. Fresh stock solutions of ABT-737 were prepared in sterile DMSO and stored at −20° C. Stock solutions of 50 mM were then further diluted with DMSO and added to cells, maintaining the final concentration of DMSO constant at 0.1%. Jurkat and K562 cells were treated with 200 nM ABT-737, HL60 cells were treated with 50 nM ABT-737. Stocks of the compound I, pinnatoxin F and pinnatoxin G (1000×) were prepared in sterile DMSO and stored at −20° C. Concentrations were calculated using molecular weights of 401 (the compound I), 764 (pinnatoxin F) and 693 (pinnatoxin G). The final concentration of DMSO was kept constant at 0.1%.
(§3) Integrity of cell plasma membranes was assessed using propidium iodide (PI) staining at 48 hours. Cells (0.2×10^6) were loaded with 1 μg of propidium iodide (1 μL of a 1 mg/mL stock in water per 200 μL of cells). PI uptake by non-viable (stained, PI positive) cells was measured using the FC500 MPL Flow Cytometry system (Beckman Coulter Inc.). Viable cells were defined as PI-negative cells expressed as a percentage of the 10,000 cells analysed.

mice [2] = assay: acute toxicity in mice by intraperitoneal injection; assay type: in vivo
Procedure: (§4) No effects were recorded at 500 or 700 μg/kg. […] Furthermore, the onset of symptoms of toxicity was much slower with the compound I than with other cyclic imines. Structure-activity relationships among cyclic imines, both in terms of acute toxicity and effects on neuromuscular transmission, point to the importance of the imine moiety in the mode of action (Munday (2008)). […] This toxicity profile prompted further investigations into the use of the compound I as an anticancer therapeutic or synergist for Bcl-2 antagonists such as the compound designated ABT-737: […]

[3] = as above; assay type: in vivo; conditions: mouse, in vivo, ip, intraperitoneal injection
Procedure: as §4

K562 cells = assay: viability assay (propidium iodide, flow cytometry), K562 cells
Procedure: as §1
All cells were treated at 1×10^6 per mL in media. Fresh stock solutions of ABT-737 were prepared in sterile DMSO and stored at −20° C. Stock solutions of 50 mM were then further diluted with DMSO and added to cells, maintaining the final concentration of DMSO constant at 0.1%. […] Concentrations were calculated using molecular weights of 401 (the compound I), 764 (pinnatoxin F) and 693 (pinnatoxin G). […]
as §3, with “Cells (0.2×10^6) were loaded with 1 μg of propidium iodide (1 μL of a 1 mg/mL stock in water per 200 μL of cells).” left out

caspase-3 in P388 cells = assay: activation of caspase-3 in P388 cells; assay type: cell-based; conditions: after 12 hours of exposure
Procedure: as §4

Jurkat cells = assay: phosphatidylserine assay (Annexin V-FITC / propidium iodide), Jurkat cells; assay type: cell-based, human
Procedure: Phosphatidylserine (PS) becomes exposed on the outer leaflet of the plasma membrane during apoptosis. PS binds strongly with Annexin-V, which when labelled with a fluorescent probe such as fluorescein isothiocyanate (FITC), allows the detection of cells undergoing apoptosis. Treated cells (0.1×10^6) were harvested and centrifuged at 10,000×g for 1 minute. The supernatant was removed and cells were resuspended in 100 μL Annexin-V Binding Buffer (10 mM HEPES pH 7.4, 140 mM NaCl, 2.5 mM CaCl2). Cells were stained by adding 1 μL Annexin-V FITC conjugate, and then incubated in the dark at room temperature for 15 minutes. […] Viable cells (PI negative) that stained with Annexin-V FITC were termed PS positive.

HL60 cells = assay: viability assay (propidium iodide, flow cytometry), HL60 cells; conditions: for CC50: Homo sapiens, HL-60, 48 h
Procedure: as §1, §2, §3

P388 cells = assay: in vitro dose-response (toxicity) against P388 cells; assay type: cell-based
Procedure: (§5) FIG. 2. Dose response curves for the compound I designated portimine against P388 (▴) and Vero (▪) cells over 72 hours exposure.
as §4

Vero cells = assay: in vitro dose-response (toxicity) against Vero cells; assay type: cell-based
Procedure: as §5, §4

Jurkat T-lymphoma cells = assay: viability assay (propidium iodide, flow cytometry), Jurkat cells; conditions: for CC50: Homo sapiens, Jurkat, 48 h; for cytotoxicity: Jurkat cells, 48 hours, over the concentration range tested
Procedure: as §1, §2, §3

[4] = system: Caspase-3-like DEVDase activity in Bcl-2 overexpressing Jurkat cells; assay: caspase assay (DEVD-AMC), Bcl-2 overexpressing Jurkat cells; assay type: cell-based, human
Procedure: (§6) Six hours after treatment 1×10^6 cells were harvested and stored as cell pellets at −80° C. Cell pellets were resuspended in 15 μL PBS, transferred to a 96-well fluorescent plate, and 95 μL buffer (100 mM HEPES, 10% sucrose, 5 mM DTT, 0.1% NP-40 and 0.1% CHAPS at pH 7.25) containing 50 μM DEVD-AMC. The rate of release of fluorescent AMC was monitored at 37° C. (λex 390 nm, λem 460 nm). Data are expressed as a fold increase in activity over vehicle-treated cells incubated for the same time.

[5] = system: Caspase-3-like DEVDase activity in wild-type Jurkat cells; assay: caspase assay (DEVD-AMC), wild-type Jurkat cells; assay type: cell-based, human
Procedure: as §6

mice [6] = conditions: cited from earlier work; for LD50 reported for other cyclic imines: intraperitoneal injection

Question: Which results are given for `C=CC1=C[C@@H]2[C@@H]3O[C@]4(CC[C@H](O4)[C@@H](C)C[C@@H](O)C3=O)C[C@H](O)C3=NCC[C@@]32CC1` (relative stereo) [compound I, (4R,6S,9R,10R,12S,14R,14aR,18aS)-rel-16-ethenyl-1,2,4,5,7,8,9,10,11,12, 14,14a,17,18-tetradecahydro-4,12-dihydroxy-10-methyl-)13H-6,9:6,14-diepoxybenzo[2,3]cyclotetradeca[1,2-b]pyrrol-13-one]?
Answer: CC50 ([1]; Homo sapiens, Jurkat, 48 h, read-out: LC50): 2.4 nM; cell death ([1]; Jurkat cells overexpressing Bcl-2, 48 hours, without ABT-737, up to highest concentrations tested): unable to trigger cell death; onset of symptoms of toxicity (mice [2]; compared with other cyclic imines): much slower; effects recorded at sublethal doses (mice [2]; intraperitoneal injection, 500 or 700 μg/kg): No effects; LD50 [3]: 1.57 mg/kg; CC50 (K562 cells; Homo sapiens, K562, 48 h, read-out: LC50): 6.7 nM; sensitivity of K562 cells (K562 cells; K562 cells, 48 h, without ABT-737): relatively resistant; activation of caspase-3 (caspase-3 in P388 cells): observed; time at which annexin V positive cells are evident (Jurkat cells; 50 nM portimine): 2 h; cells annexin V positive (Jurkat cells; 6 hours): up to 50%; necrosis (Jurkat cells; annexin V / propidium iodide staining): no indication of significant necrosis; CC50 (HL60 cells; read-out: LC50, HL60 cells, 48 h, with 50 nM ABT-737): 0.8 nM; CC50 (HL60 cells; read-out: LC50, HL60 cells, 48 h, without ABT-737): 34 nM; EC50 (P388 cells; Mus musculus, P388 cells, 72 hours exposure): 2.7 nM; cells killed (P388 cells; P388 cells, 10 nM, 72 hours of exposure): > 90%; cells killed (Vero cells; 10 nM, 72 hours of exposure): > 90%; EC50 (Vero cells; Chlorocebus sabaeus, 72 hours exposure): 3 nM; CC50 (Jurkat T-lymphoma cells; read-out: LC50, Jurkat cells, 48 hours, without ABT-737): 6 nM; CC50 (Jurkat T-lymphoma cells; read-out: LC50, wild-type Jurkat cells, 48 hours, with 200 nM ABT-737): 1.4 nM; increase in caspase activity ([4]; 50 nM portimine in combination with 200 nM ABT-737): 60 fold; caspase activity ([4]; any concentration, 6 hours): no caspase activity; caspase activity time course ([5]; Jurkat cells, 50 nM portimine): steady increase in caspase activity over the 5 hours; caspase activation ([5]; wild-type Jurkat cells, increasing concentrations, 6 hours): dose-dependent increase

Question: Which direct cytotoxicity [1] does the source give for `CN(C)CC[C@H](CSc1ccccc1)Nc1ccc(S(=O)(=O)NC(=O)c2ccc(N3CCN(Cc4ccccc4-c4ccc(Cl)cc4)CC3)cc2)cc1[N+](=O)[O-]` [ABT-737, 4-[4-[(4′-chloro[1,1′-biphenyl]-2-yl)methyl]-1-piperazinyl]-N-[[4-[[(1R)-3-(dimethylamino)-1-[(phenylthio)methyl]propyl]amino]-3-nitrophenyl]sulfonyl]-benzamide, reference compound] here?
Answer: not directly cytotoxic

Question: And the “sensitivity of HL60 cells” value (HL60 cells; HL60 cells, ABT-737 alone)?
Answer: particularly sensitive

Question: Which “LD50 reported for other cyclic imines” value (mice [6]) does the source give for `C=C1CCCC2=NCC(C)C(C)CC23CCC(C2C=C(C)C(=O)O2)=C(C)C3/C=C(/C)C(O)CC2CCC3(CCC4(OC(CCC4(C)O)C1)O3)O2` (centres unmarked) [desmethyl spirolide C] here?
Answer: 0.0069 mg/kg

Question: Which “LD50 reported for other cyclic imines” value (mice [6]) does the source give for `CC1=C[C@@H](C2=C(C)[C@@H]3/C=C(\C)[C@@H](O)CC[C@@H]4C[C@@H](C)[C@@H](O4)/C(C)=C/CCC4=NCCC[C@@]43CC2)OC1=O` [gymnodimine] here?
Answer: 0.096 mg/kg

Question: Which EC50 (P388 cells; P388 cells in vitro) does the source give for `C=C1CCCC2=NC[C@H](C)[C@@H](C)C[C@@]23CCC([C@@H]2CCC(=O)O2)=C[C@@H]3[C@@H]2O[C@@]3(C[C@@H](C)C[C@H]2O3)C[C@@H]2O[C@]3(CC[C@@]4(O[C@@H](CC[C@@]4(C)O)C1)O3)C[C@H](C)[C@@H]2O` [pinnatoxin F, reference compound] here?
Answer: > 1000 nM

Question: And the cytotoxicity (Jurkat T-lymphoma cells)?
Answer: little cytotoxicity

Question: What about the “LD50 reported for other cyclic imines” value (mice [6]) of the same compound?
Answer: 0.016 mg/kg

Question: Which cytotoxicity (Jurkat T-lymphoma cells) does the source give for `C=CC1=C[C@@H]2[C@@H]3O[C@]4(C[C@H]5CCC[C@@]6(CC[C@@]7(O[C@@H](CC[C@@]7(C)O)CC(=C)CCCC7=NC[C@H](C)[C@@H](C)C[C@@]72CC1)O6)O5)C[C@@H](C)[C@@H](O)[C@H]3O4` [pinnatoxin G, reference compound] here?
Answer: little cytotoxicity

Question: For `C=C1CCCC2=NC[C@H](C)[C@@H](C)C[C@@]23CCC([C@@H]2C=C(C)C(=O)O2)=C(C)[C@@H]3/C=C(\C)[C@@H](O)C[C@H]2O[C@@]3(C[C@H]2C)O[C@@H](CC[C@@]3(C)O)C1` [spirolide H], which “toxicity to mice relative to the compound I” value (mice [6]; Roach et al (2009)) is on record?
Answer: even less toxic to mice than the compound I
